Measurements as given in the supplement of paper PMC10307832.

Assays:
Assay in all cases: relative viability (nuclei count vs DMSO), 5 days (fraction); higher = more cells survive
AGI-6780 + Decitabine = compound: O=C(Nc1cccc(C(F)(F)F)c1)Nc1cc(S(=O)(=O)NC2CC2)ccc1-c1ccsc1 [AGI-6780] + Nc1ncn([C@H]2C[C@H](O)[C@@H](CO)O2)c(=O)n1 [Decitabine] (partner 2 µM)
In short: (§1)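 Medians of duplicate plates are given as relative viability. That measure is the nuclei count in treated wells divided by the count in vehicle wells. Counts were taken on 4× images of lung cancer cell lines in 1536-well plates, 5 days after pin-tool dosing the day after seeding with one drug alone or a fixed anchor-drug dose plus five library-drug doses (not always all listed) in √10 steps.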

AGI-6780 + Luminespib = compound: O=C(Nc1cccc(C(F)(F)F)c1)Nc1cc(S(=O)(=O)NC2CC2)ccc1-c1ccsc1 [AGI-6780] + CCNC(=O)c1noc(-c2cc(C(C)C)c(O)cc2O)c1-c1ccc(CN2CCOCC2)cc1 [Luminespib] (partner 0.01 µM)
In short: as §1

AGI-6780 + Lapatinib = compound: O=C(Nc1cccc(C(F)(F)F)c1)Nc1cc(S(=O)(=O)NC2CC2)ccc1-c1ccsc1 [AGI-6780] + CS(=O)(=O)CCNCc1ccc(-c2ccc3ncnc(Nc4ccc(OCc5cccc(F)c5)c(Cl)c4)c3c2)o1 [Lapatinib] (partner 2 µM)
In short: as §1

AGI-6780 + Olaparib = compound: O=C(Nc1cccc(C(F)(F)F)c1)Nc1cc(S(=O)(=O)NC2CC2)ccc1-c1ccsc1 [AGI-6780] + O=C(c1cc(Cc2n[nH]c(=O)c3ccccc23)ccc1F)N1CCN(C(=O)C2CC2)CC1 [Olaparib] (partner 8 µM)
In short: as §1

Cell Line	relative viability (AGI-6780 + Decitabine; first compound 0.08 µM)	relative viability (AGI-6780 + Decitabine; first compound 0.253 µM)	relative viability (AGI-6780 + Decitabine; first compound 0.8 µM)	relative viability (AGI-6780 + Decitabine; first compound 8 µM)	relative viability (AGI-6780 + Luminespib; first compound 0.08 µM)	relative viability (AGI-6780 + Luminespib; first compound 0.253 µM)	relative viability (AGI-6780 + Luminespib; first compound 0.8 µM)	relative viability (AGI-6780 + Luminespib; first compound 2.53 µM)	relative viability (AGI-6780 + Luminespib; first compound 8 µM)	relative viability (AGI-6780 + Lapatinib; first compound 0.08 µM)	relative viability (AGI-6780 + Lapatinib; first compound 0.253 µM)	relative viability (AGI-6780 + Lapatinib; first compound 0.8 µM)	relative viability (AGI-6780 + Lapatinib; first compound 2.53 µM)	relative viability (AGI-6780 + Lapatinib; first compound 8 µM)	relative viability (AGI-6780 + Olaparib; first compound 0.08 µM)	relative viability (AGI-6780 + Olaparib; first compound 0.253 µM)	relative viability (AGI-6780 + Olaparib; first compound 0.8 µM)	relative viability (AGI-6780 + Olaparib; first compound 8 µM)	relative viability (AGI-6780 + Decitabine; first compound 2.53 µM)	relative viability (AGI-6780 + Olaparib; first compound 2.53 µM)
NCI-H1792	0.665	0.437	0.536	0.49	0.52	0.354	0.371	0.443	0.366	0.805	0.893	1.14	0.883	0.914	0.266	0.404	0.576	0.292		
NCI-H23	0.3	0.327	0.285	0.313		0.202	0.231		0.205	1.17	1.26	1.45	0.931	1.15	0.302	0.271	0.288	0.349	0.294	0.354
NCI-H2126	0.577	0.615	0.562	0.582	0.984	0.843	0.95	0.9	0.856	0.782	0.798	0.73	0.586	0.757	0.981	0.895	0.914	0.959	0.501	0.84
LXF-289	0.33	0.393	0.358	0.366	0.776	0.723	0.679	0.606	0.659	0.903	0.897	0.906	0.936	0.831	1.07	1.02	1.08	1.03	0.311	1.06
NCI-H1437	0.572	0.587	0.594	0.576	1.21	1.06	1.17	1.22	1.1	0.825	0.834	0.863	0.838	0.941	0.677	0.638	0.639	0.572	0.583	0.63
NCI-H647	0.438	0.478	0.411	0.401	0.0935	0.181	0.12	0.103	0.118	0.919	1.18	1.06	0.955	1.3	0.622	0.579	0.705	0.488	0.297	0.479
NCI-H838	0.445	0.495	0.479	0.47	0.374	0.353	0.339	0.303	0.274	1.18	0.99	1.05	0.871	1.23	0.844	0.771	0.836	0.735	0.506	0.712
NCI-H727	0.939	0.95	0.857	0.897	0.322	0.545	0.347	0.287	0.468	1.05	0.961	0.93	0.712	0.811	0.65	0.757	0.705	0.66	0.951	0.597
NCI-H661	0.589	0.567	0.612	0.558	0.928	0.938	0.951	1.01	0.87	0.549	0.518	0.616	0.474	0.516	0.782	0.754	0.768	0.726	0.502	0.719
CAL-12T					0.245	0.58	0.644	0.476	0.402		0.582	0.876	0.572	0.619	0.712	0.662	0.648	0.78		0.667
Calu-6										0.989	1.01	1.22	1.14	0.974	0.598	0.601	0.584	0.543		0.559
NCI-H1299										1.01	0.978	0.925	0.929	0.968	0.982	0.964	0.948	0.961		0.908
LCLC-103H	0.768	0.824	0.714	0.753	1.07	0.896	0.986	0.971	0.963						0.762	0.755	0.716	0.721	0.726	0.688
NCI-H441	0.221	0.28	0.25	0.241	0.346	0.333	0.41	0.302	0.361						0.627	0.525	0.624	0.453	0.204	0.441
NCI-H1703										1.11	0.87	1.82	1.13	0.93	0.728	0.37	0.457	0.25		0.373
HCC-366	0.341	0.304	0.39	0.355						1.05	1.08	1.01	1.1	1.05	0.369	0.38	0.364	0.426	0.308	0.258
NCI-H2228					0.128	0.15	0.148	0.114	0.113	1.2	1.05	0.825	0.771	1.27	0.686	0.769	0.591	0.736		0.41
ChaGo-K-1	0.507	0.534	0.512	0.425	0.573	0.467	0.64	0.497	0.76						0.437	0.457	0.377	0.422	0.455	0.411
IA-LM										1.01	0.845	0.928	0.83	0.896	1.05	0.763	1	0.927		0.869
HCC-78	0.604	0.695	0.708	0.688						0.66	0.702	0.821	0.485	0.992	0.897	0.798	1.06	0.849	0.661	0.665
